Test results reported in PubChem BioAssay (NCI).
“And” between values parts separate entries of the source, which are not always exact repeats. Equal entries are not always repeated.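 Values below derive from 48-hour exposures of cells grown in 96-well plates, with endpoints linearly interpolated between the two concentrations bracketing the appropriate inhibition level. GI50 = concentration required for 50% inhibition of growth. Definition used: TGI = concentration required for complete inhibition of growth.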

Key:
Test in all cases: NCI anticancer screen, dose series, 48 h
DU-145 prostate = tested on: DU-145 prostate
LOX IMVI melanoma = tested on: LOX IMVI melanoma
NCI-H460 lung = tested on: NCI-H460 lung
OVCAR-3 ovarian = tested on: OVCAR-3 ovarian
PC-3 prostate = tested on: PC-3 prostate
TK-10 renal = tested on: TK-10 renal
UACC-62 melanoma = tested on: UACC-62 melanoma
MCF7 breast = tested on: MCF7 breast

Row | Compound | GI50 (DU-145 prostate) | TGI (DU-145 prostate) | GI50 (LOX IMVI melanoma) | TGI (LOX IMVI melanoma) [nM] | GI50 (NCI-H460 lung) | TGI (NCI-H460 lung) [nM] | GI50 (OVCAR-3 ovarian) | TGI (OVCAR-3 ovarian) [nM] | GI50 (PC-3 prostate) | TGI (PC-3 prostate) [nM] | GI50 (TK-10 renal) [nM] | TGI (TK-10 renal) | GI50 (UACC-62 melanoma) | TGI (UACC-62 melanoma) [nM] | GI50 (MCF7 breast) [nM] | TGI (MCF7 breast) [nM]
1 | Cc1ccc(CS/C(=C\c2ccc([N+](=O)[O-])cc2)C(=O)c2ccc(F)cc2)cc1 | 21100 nM | > 100000 nM | 1640 nM | 3000 | 6440 nM | 22500 | 1950 nM | 4020 | 2360 nM | 6200 | 15100 | 32200 nM | 2460 nM | 8770 |  | 
2 | CC[CH2][Pb]([CH2]CC)([CH2]CC)[O]C(=O)C(F)(F)F | 188 nM | 516 nM | 89.1 nM | 255 | 113 nM | 398 | 88.5 nM | 239 | 122 nM | 294 | 204 | 533 nM | 116 nM | 300 |  | 
3 | O=C1c2cccc(NCCN=Cc3cc(O)ccc3O)c2C(=O)c2c(NCCN=Cc3cc(O)ccc3O)cccc21 | 1390 nM | 5430 nM | 762 nM | 2250 |  |  | 1630 nM | 4280 | 1170 nM | 3970 | 2210 | 5800 nM | 1680 nM | 3570 |  | 
4 | O=C1/C(=C/c2ccc(Br)cc2)C=C(c2ccccc2)N1CCc1ccccc1 | 2540 nM | 15800 nM | 820 nM | 10800 | 906 nM | 10200 | 1780 nM | 7340 | 1200 nM | 5060 | 1820 | 6060 nM |  |  | 3420 | 32700
5 | COc1cccc(-c2cc(=O)c3cc(N(C)C)ccc3[nH]2)c1 | 34 nM and 7.3 nM | 302 nM and 369 nM and 800 nM | 35.4 nM and 12 nM |  | 34.2 nM and 16.9 nM |  | 15.3 nM and 2.66 nM |  | 27.5 nM and 8.06 nM | > 100000 |  | 65000 nM and 34200 nM | 16.3 nM and 3.63 nM | > 100000 |  | 
6 | O=C(O)Cn1ccc(=O)c2ccc([N+](=O)[O-])cc21 |  | > 100000 nM |  |  |  | > 100000 |  | > 100000 |  | > 100000 |  | > 100000 nM |  | > 100000 |  | > 100000
7 | COc1cc(/C=C/c2cc(/C=C/c3ccc(O)c(OC)c3)n(-c3ccccc3)n2)ccc1O | 399 nM | 1400 nM |  |  |  |  | 266 nM | 938 | 332 nM | 12700 | 563 | 1990 nM |  |  | 265 | 1700
8 | COc1cc2c3c(n(C)c(=O)c2cc1OC)-c1cc2c(cc1/C3=C\CCCN1C(=O)c3ccccc3C1=O)OCO2 | 6730 nM | > 40000 nM | 20800 nM | > 40000 | 4760 nM | > 40000 | > 40000 nM | > 40000 | 4790 nM | 24700 | > 40000 | > 40000 nM |  |  | 6940 | > 40000
9 | O=[N+]([O-])/C=C\c1ccc(Cl)c(Cl)c1 | 1810 nM | 4150 nM | 412 nM | 1730 | 3640 nM | 25100 | 1960 nM | 3940 | 1240 nM | 3930 | 3480 | 12000 nM | 10900 nM | 30100 |  | 
10 | O=C1c2c(c3c4ccccc4n(CCCCCCBr)c3c3[nH]c4ccccc4c23)C(=O)N1O | 4010 nM | 15200 nM |  |  | 3350 nM | 11800 | 3060 nM | 13000 |  |  | 3130 | 11700 nM | 1690 nM | 4420 |  | 
11 | Cn1cc(-c2cnc3ccc(NC(=O)Nc4ccc(F)c(Br)c4)cc3n2)cn1 | 1670 nM | 3960 nM | 1510 nM | 2900 | 1740 nM | 3770 | 2000 nM | 5770 | 1440 nM | 3620 | 2090 | 5500 nM | 1680 nM | 3740 |  | 
12 | COC(=O)CCCCN=Cc1c(O)c(O)c(C(C)C)c2cc(C)c(-c3c(C)cc4c(C(C)C)c(O)c(O)c(C=NCCCCC(=O)OC)c4c3O)c(O)c12 | 1390 nM | > 32500 nM | 822 nM | 2430 | 1040 nM | 9480 | 1020 nM | > 32500 | 787 nM | > 32500 | 1050 | > 32500 nM |  |  | 917 | 6260
13 | N#CSCC1CC(O)(c2ccccc2)C(c2ccccc2)C(c2ccc(Cl)cc2)O1 (stereo unspecified) | 2020 nM | 4670 nM | 1580 nM | 2970 |  |  | 782 nM | 2290 | 1850 nM | 4980 | 2010 | 4200 nM | 1410 nM | 2810 | 1270 | 3210
14 | O=C(CI)NC1Oc2ccccc2-c2oc(=O)c(-c3ccccc3)cc21 (stereo unspecified) | 1570 nM | 2980 nM | 307 nM | 1070 |  |  | 1300 nM | 2710 |  |  | 1710 | 3130 nM | 1730 nM | 3250 |  | 
